Tests used:
[1] = tested on: TC-hTS in HEK293T cell lysates; assay: FlAsH emission in cell lysates; assay type: binding, human; settings: excitation 480 nm
Description: HEK293T cells (10 × 10^6) were plated into 150-mm dishes (6 dishes were used for each condition) and transfected the following day with 25 μg of pcDNA-TS or pcDNA-TS-TC using Lipofectamine™ LTX Transfection Reagent; cells were collected 48 h post-transfection in 15-ml tubes and washed twice with 4 °C cold PBS for spectrofluorometric analysis. […]
UV-visible absorption measurements were performed with a Cary 100 Varian spectrophotometer. Fluorescence measurements were carried out with a Horiba Fluoromax-3 spectrofluorometer. […] The fluorescein, hTS dimer and LR-h concentrations were determined spectrophotometrically using the following extinction coefficients: εmax (fluorescein) = 79000 M^−1 cm^−1, ε280 (hTS) = 89000 M^−1 cm^−1, ε280 (fluorescein) = 30000 M^−1 cm^−1,[28] and ε404 (LR-h) = 35000 M^−1 cm^−1, determined ad hoc for this work. The h (420 nm) and F (522 nm) emissions were measured by excitation at 370 or 380 nm. The F emission values were analysed according to the Scatchard method as functions of the LR-h concentration. The amount measured before LR-h addition and due to the direct excitation of F at 370 nm was subtracted from the intensity measured at 522 nm. […] Similar experiments were performed in 800 μl of the lysate of 60 × 10^6 HEK cells to which hTS-F was added to a concentration of 2.5 μM (determined spectrophotometrically). […]

[2] = tested on: TC-hTS-transfected HEK293T cells; assay: FlAsH-EDT2 staining and confocal imaging of transfected HEK293T cells; assay type: cell-based, human; settings: HEK293T transfected with empty vector, hTS or TC-hTS; 0.5 μM FlAsH, 30 min; confocal microscopy
Description: HEK293T cells (3 × 10^4) were plated into 6-well microslides pre-coated with 0.01% (w/v) poly-L lysine and transfected the following day with 2.5 μg of DNA using Lipofectamine™ LTX Transfection Reagent. After 24 h, cells were labelled for 30 min with 12.5 μM 1,2-ethanedithiol (EDT) and 0.5 μM FlAsH (Life Technologies) in HBSS and then washed twice for 15 min in 150 μM 2,3-dimercaptopropanol (BAL) in HBSS. Cells were fixed with 4% (w/v) paraformaldehyde for 15 min at RT and then imaged using an inverted Leica TCS SP2 confocal microscope interfaced with an Ar Laser (488 nm/20 mW), equipped with AOBS and operated at a magnification of 63x (HCX PL APO 63x/1.40 - oil - Lambda blue correction). Images were processed using LCS Lite (Leica Microsystems, Heidelberg).

[3] = complexes of FlAsH with some dodecapeptides including CCPGCC; 'as low as'; read-out: apparent dissociation constant; cited from earlier work
Description: According to a strategy devised by Tsien and co-workers, some fluorogenic biarsenicals can covalently bind proteins that contain a tetracysteine motif, CCXXCC, thereby strongly enhancing their emission quantum yield and making such tetracysteine-containing proteins observable within cells. The CCPGCC sequence features a hairpin conformation that optimizes the covalent binding of each As atom of the probe to the S atoms of two cysteine units. Apparent dissociation constants as low as 4 pM have been measured for complexes formed between the fluorescein diarsenical probe FlAsH and some do ...

[4] = molecular target: T1, human thymidylate synthase (hTS) (Homo sapiens, UniProt P04818); assay: Kinetic characterization of the hTS enzyme; assay type: biochemical; settings: mTHF 3.50-69.20 μM; enzyme 0.30 μM, dUMP 120 μM; 340 nm; triplicate
T1 construct: inferred from the nickel-resin purification and the pQE80L vector; made in house; host or cells: E. coli DH5α
Description: The enzyme reaction was started when dUMP was added to the reaction mixture. […] For each single determination assay, the experimental data were analysed in triplicate with a p-value < 0.005 representing statistical significance.

Row | Structure (SMILES) | FlAsH emission, TC-hTS cell lysate versus hTS cell lysate ([1]; after fourth addition, total FlAsH 0.6 μM) | duration of FlAsH emission increase after addition of the probe ([1]; printed for the hTS-expressing cells) | green fluorescence enhancement [2] | Kd [3] | Km [4]
1 | O=C(O)c1ccccc1-c1c2ccc(=O)c([As]3SCCS3)c-2oc2c([As]3SCCS3)c(O)ccc12 [FlAsH] | 2.5 times | approximately forty | green fluorescence enhancement only in TC-hTS-transfected cells | ≥ 4 pM | –
2 | Nc1nc2c(c(=O)[nH]1)N1CN(c3ccc(C(=O)N[C@@H](CCC(=O)O)C(=O)O)cc3)CC1CN2 (some centres unmarked) [mTHF, 5,10-methylenetetrahydrofolate] | – | – | – | – | 5.87 µM

— publication PMC4890114, “Intracellular quantitative detection of human thymidylate synthase engagement with an unconventional inhibitor using tetracysteine-diarsenical-probe technology” (Scientific Reports, 2016)
